Results from PubChem BioAssay (NCI).
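Five concentrations, 48 hours, 96-well plates. TGI: total growth inhibition.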

What was measured:
Experiment in all cases: inhibition of tumour cell growth, NCI panel, 48 h
COLO 205 colon = tested on: COLO 205 colon
K-562 leukemia = tested on: K-562 leukemia
A549 NSCLC = tested on: A549 NSCLC
NCI-H522 lung = tested on: NCI-H522 lung
OVCAR-8 ovarian = tested on: OVCAR-8 ovarian
UACC-257 melanoma = tested on: UACC-257 melanoma
UACC-62 melanoma = tested on: UACC-62 melanoma
IGROV1 ovarian = tested on: IGROV1 ovarian
HL-60(TB) leukemia = tested on: HL-60(TB) leukemia
MOLT-4 leukemia = tested on: MOLT-4 leukemia
OVCAR-5 ovarian = tested on: OVCAR-5 ovarian
MALME-3M melanoma = tested on: MALME-3M melanoma
SF-539 CNS = tested on: SF-539 CNS
HCC-2998 colon = tested on: HCC-2998 colon
SNB-19 CNS = tested on: SNB-19 CNS
LXFL 529 NSCLC = tested on: LXFL 529 NSCLC
OVCAR-4 ovarian = tested on: OVCAR-4 ovarian
SF-295 CNS = tested on: SF-295 CNS
CAKI-1 renal = tested on: CAKI-1 renal
M14 melanoma = tested on: M14 melanoma
DMS 114 small cell lung = tested on: DMS 114 small cell lung
HT29 colon = tested on: HT29 colon
DMS 273 small cell lung = tested on: DMS 273 small cell lung
HCT-116 colon = tested on: HCT-116 colon
SNB-78 CNS = tested on: SNB-78 CNS
NCI-H460 lung = tested on: NCI-H460 lung
HOP-18 NSCLC = tested on: HOP-18 NSCLC
SK-MEL-28 melanoma = tested on: SK-MEL-28 melanoma
HCT-15 colon = tested on: HCT-15 colon
SK-OV-3 ovarian = tested on: SK-OV-3 ovarian
KM12 colon = tested on: KM12 colon
RPMI-8226 leukemia = tested on: RPMI-8226 leukemia
U251 CNS = tested on: U251 CNS
786-0 renal = tested on: 786-0 renal
SW-620 colon = tested on: SW-620 colon
TK-10 renal = tested on: TK-10 renal
KM20L2 colon = tested on: KM20L2 colon
EKVX NSCLC = tested on: EKVX NSCLC
SK-MEL-2 melanoma = tested on: SK-MEL-2 melanoma
HOP-92 NSCLC = tested on: HOP-92 NSCLC
M19-MEL melanoma = tested on: M19-MEL melanoma
UO-31 renal = tested on: UO-31 renal
SK-MEL-5 melanoma = tested on: SK-MEL-5 melanoma
OVCAR-3 ovarian = tested on: OVCAR-3 ovarian
SN12C renal = tested on: SN12C renal
SNB-75 CNS = tested on: SNB-75 CNS
HOP-62 NSCLC = tested on: HOP-62 NSCLC
NCI-H226 lung = tested on: NCI-H226 lung
CCRF-CEM leukemia = tested on: CCRF-CEM leukemia
SF-268 CNS = tested on: SF-268 CNS
ACHN renal = tested on: ACHN renal
A498 renal = tested on: A498 renal
RXF-631 renal = tested on: RXF-631 renal
NCI-H23 lung = tested on: NCI-H23 lung
RXF 393 renal = tested on: RXF 393 renal
SR leukemia = tested on: SR leukemia
XF 498 CNS = tested on: XF 498 CNS
LOX IMVI melanoma = tested on: LOX IMVI melanoma
DLD-1 colon = tested on: DLD-1 colon

Measured: TGI

O=c1c2ccccc2nc(-c2ccc(Br)cc2)n1NC1OC(CO)C(O)C(O)C1O (stereo not given)
not listed: RXF 393 renal | SR leukemia | XF 498 CNS | LOX IMVI melanoma | DLD-1 colon
> 100 µM: all other assays above

Cc1oc2c(C)c(O)c3c(c2c1C1(C)OCCO1)C(=O)C=C(Cl)C3=O
not listed: UACC-62 melanoma | MALME-3M melanoma | HCC-2998 colon | DMS 114 small cell lung | HOP-18 NSCLC | SK-OV-3 ovarian | SNB-75 CNS | DLD-1 colon
> 100 µM: all other assays above

CC(C)NCC(O)COC(=O)c1cccs1 (stereo not given)
not listed: SF-539 CNS | SF-295 CNS | DMS 114 small cell lung | HCT-116 colon | HOP-18 NSCLC | U251 CNS | NCI-H226 lung | A498 renal | SR leukemia
> 100 µM: all other assays above

O=C(O)C(Cc1c[nH]c2ccccc12)N=Cc1nc(-c2ccccc2)oc1O (stereo not given)
not listed: CAKI-1 renal | HOP-18 NSCLC | KM12 colon | RXF-631 renal
> 100 µM: all other assays above
